Here are results for 15 compounds from patent publication US11178871B2, “Herbicidal pyrimidine compounds” (BASF SE, priority 2016, dated 2021).

What all share (format): in vivo
One assay has as its system Setaria faberi. The assay can be described thus: greenhouse test, pre-emergence treatment, SETFA. The text has this:
(§1) The culture containers used were plastic flowerpots containing loamy sand with approximately 3.0% of humus as the substrate. The seeds of the test plants were sown separately for each species.
(§2) For the pre-emergence treatment, the active ingredients, which had been suspended or emulsified in water, were applied directly after sowing by means of finely distributing nozzles. The containers were irrigated gently to promote germination and growth and subsequently covered with transparent plastic hoods until the plants had rooted. This cover caused uniform germination of the test plants, unless this had been impaired by the active ingredients.
(§3) Depending on the species, the plants were kept at 10-25° C. or 20-35° C., respectively.
(§4) The test period extended over 2 to 4 weeks. During this time, the plants were tended, and their response to the individual treatments was evaluated.
(§5) Evaluation was carried out using a scale from 0 to 100. 100 means no emergence of the plants, or complete destruction of at least the aerial moieties, and 0 means no damage, or normal course of growth. A good herbicidal activity is given at values of at least 70 and a very good herbicidal activity is given at values of at least 85.
(§6) The plants used in the greenhouse experiments were of the following species: […]

Assay [1] has as its system Echinocloa crus-galli. The assay can be described thus: greenhouse test, post-emergence treatment, ECHCG. Particulars: post-emergence. A digest of the protocol: (§7)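 Seeds were sown per species in loamy sand with about 3.0% humus, grown (or transplanted as seedlings) to 3–15 cm, and treated with water-suspended or emulsified compound. Response was assessed over 2–4 weeks at species-dependent 10–25 °C or 20–35 °C, scored 0 (normal growth) to 100 (complete kill).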

Another assay concerns Alopecurus myosuroides. Kind of assay: greenhouse test, post-emergence treatment, ALOMY. Particulars: post-emergence, 2000 g/ha. A digest of the protocol: as §7
The test system of assay [2] is Poa annua. Kind of assay: greenhouse test, post-emergence treatment, POAAN. Particulars: 2000 g/ha.
Source text: as §1
(§8) For the post-emergence treatment, the test plants were first grown to a height of 3 to 15 cm, depending on the plant habit, and only then treated with the active ingredients which had been suspended or emulsified in water. For this purpose, the test plants were either sown directly and grown in the same containers, or they were first grown separately as seedlings and transplanted into the test containers a few days prior to treatment.
as §3, §4, §5, §6

In the next assay the test system is Apera spica-venti. The assay can be described thus: greenhouse test, pre-emergence treatment, APESV. In a few lines: (§9)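 Scores run from 0, normal growth, to 100, no emergence or aerial parts destroyed, assessed after 2 to 4 weeks at 10-25 °C or 20-35 °C depending on species. Actives in water were spray-applied immediately post-sowing onto loamy sand with approximately 3.0% humus; hoods kept on until rooting.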

Assay [3] deals with Echinocloa crus-galli. Kind of assay: greenhouse test, pre-emergence treatment, ECHCG. In a few lines:
as §9

Another assay relates to Abutilon theophrasti. The assay can be described thus: greenhouse test, post-emergence treatment, ABUTH. In a few lines: as §7
The test system of assay [4] is Poa annua. The assay can be described thus: greenhouse test, pre-emergence treatment, POAAN. Particulars: 2000 g/ha.
Source text: as §1, §2, §3, §4, §5, §6

In assay [5] the test system is Amaranthus retroflexus. The assay can be described thus: greenhouse test, post-emergence treatment, AMARE. A digest of the protocol: as §7
In the next assay the test system is Agrostis stolonifera. The assay can be described thus: greenhouse test, pre-emergence treatment, AGSST. As to conditions: 2000 g/ha.
Source text: as §1, §2, §3, §4, §5, §6

Assay [6] relates to Amaranthus retroflexus. Kind of assay: greenhouse test, pre-emergence treatment, AMARE.
Source text: as §1, §2, §3, §4, §5, §6

In the next assay the test system is Setaria viridis. The assay can be described thus: greenhouse test, post-emergence treatment, SETVI. Particulars: 1000 g/ha. In a few lines:
as §7

Another assay relates to Matricaria inodora. The assay can be described thus: greenhouse test, post-emergence treatment, MATIN. As to conditions: 2000 g/ha.
Source text: as §1, §8, §3, §4, §5, §6

The next assay relates to Avena fatua. The assay can be described thus: greenhouse test, post-emergence treatment, AVEFA. Particulars: 2000 g/ha. A digest of the protocol: as §7

In the case of `O=[N+]([O-])c1ccccc1-c1cnc(C2CC2)nc1-c1ccco1` [Ex. 37], in the assay on Setaria faberi (2000 g/ha), the herbicidal activity entry is given as “good (A good herbicidal activity is given at values of at least 70)”.

Take `Cc1cocc1-c1nc(C2CC2)ncc1-c1ccccc1Br` [Ex. 269]: the herbicidal activity entry in the assay with Echinocloa crus-galli [1] (1000 g/ha) and with Setaria faberi (1000 g/ha) was “very good (a very good herbicidal activity is given at values of at least 85)” in each case.

`OC(c1nc(Cl)ccc1Cl)C(O)c1nc(C2CC2)ncc1-c1ccccc1Cl` (centres unmarked) [Ex. 259]: the herbicidal activity entry in the assay with Alopecurus myosuroides is given as “very good (a very good herbicidal activity is given at values of at least 85)”; in the assay on Echinocloa crus-galli [1] (2000 g/ha), “very good (a very good herbicidal activity is given at values of at least 85)”; in the assay with Poa annua [2], “very good (a very good herbicidal activity is given at values of at least 85)”; with Apera spica-venti (2000 g/ha), “good (A good herbicidal activity is given at values of at least 70)”; in the assay with Echinocloa crus-galli [3] (2000 g/ha), “good (A good herbicidal activity is given at values of at least 70)”.

Consider `Cc1ocnc1-c1nc(C2CC2)ncc1-c1ccccc1Cl` [Ex. 267], for which the herbicidal activity result with Abutilon theophrasti (2000 g/ha), in the assay on Echinocloa crus-galli [1] (2000 g/ha), in the assay on Poa annua [2], with Echinocloa crus-galli [3] (2000 g/ha) and in the assay on Poa annua [4] was “very good (a very good herbicidal activity is given at values of at least 85)” each time.

For `Brc1ccccc1-c1cnc(C2CC2)nc1C(Br)Br` [Ex. 27], the herbicidal activity result in the assay with Alopecurus myosuroides, in the assay with Amaranthus retroflexus [5] (2000 g/ha), with Echinocloa crus-galli [1] (2000 g/ha), in the assay with Apera spica-venti (2000 g/ha), with Echinocloa crus-galli [3] (2000 g/ha) and with Agrostis stolonifera was “very good (a very good herbicidal activity is given at values of at least 85)” each time.

Consider `Fc1ccc(-c2nc(C3CC3)ncc2-c2ccccc2Cl)cc1` [Ex. 11], for which the herbicidal activity result is on record as “good (A good herbicidal activity is given at values of at least 70)” with Echinocloa crus-galli [3] (2000 g/ha) and “very good (a very good herbicidal activity is given at values of at least 85)” with Setaria faberi (2000 g/ha).

Turning to `CCc1ncoc1-c1nc(C2CC2)ncc1-c1ccccc1Cl` [Ex. 286], the herbicidal activity result in the assay on Abutilon theophrasti (1000 g/ha), in the assay on Amaranthus retroflexus [5] (1000 g/ha), in the assay with Echinocloa crus-galli [1] (1000 g/ha), in the assay with Amaranthus retroflexus [6] (1000 g/ha), in the assay on Apera spica-venti (1000 g/ha) and in the assay on Echinocloa crus-galli [3] (1000 g/ha) was “very good (a very good herbicidal activity is given at values of at least 85)” throughout.

In the case of `Clc1ccccc1-c1cnc(C2CC2)nc1C1CCOC1` (centres unmarked) [Ex. 59], the herbicidal activity entry in the assay with Echinocloa crus-galli [1] (1000 g/ha) is on record as “good (A good herbicidal activity is given at values of at least 70)”; with Setaria viridis, “very good (a very good herbicidal activity is given at values of at least 85)”; with Echinocloa crus-galli [3] (1000 g/ha), “very good (a very good herbicidal activity is given at values of at least 85)”; in the assay with Setaria faberi (1000 g/ha), “good (A good herbicidal activity is given at values of at least 70)”.

Consider `N#CC(C#N)c1nc(C2CC2)ncc1-c1ccccc1Br` [Ex. 25], for which the herbicidal activity result in the assay on Matricaria inodora, in the assay on Poa annua [4] and in the assay with Agrostis stolonifera was “very good (a very good herbicidal activity is given at values of at least 85)” in each case.

For `Cc1noc(-c2nc(C3CC3)ncc2-c2ccccc2Cl)n1` [Ex. 295], the herbicidal activity entry in the assay on Alopecurus myosuroides, in the assay with Avena fatua, in the assay on Amaranthus retroflexus [6] (2000 g/ha), in the assay with Apera spica-venti (2000 g/ha) and in the assay with Echinocloa crus-galli [3] (2000 g/ha) was “very good (a very good herbicidal activity is given at values of at least 85)” throughout.

Turning to `Cc1nc(C2CC2)ncc1-c1ccccc1C(F)(F)F` [Ex. 17], the herbicidal activity entry in the assay on Echinocloa crus-galli [3] (2000 g/ha), in the assay with Setaria faberi (2000 g/ha) and in the assay with Agrostis stolonifera was “very good (a very good herbicidal activity is given at values of at least 85)” in each case.

On to `COCC(=Cc1nc(C2CC2)ncc1-c1ccccc1Cl)COC` [Ex. 293], for which the herbicidal activity result was “good (A good herbicidal activity is given at values of at least 70)” with Abutilon theophrasti (1000 g/ha), “good (A good herbicidal activity is given at values of at least 70)” in the assay on Echinocloa crus-galli [3] (1000 g/ha) and “very good (a very good herbicidal activity is given at values of at least 85)” in the assay on Setaria faberi (1000 g/ha).

In the case of `Clc1ccccc1-c1cnc(C2CC2)nc1-c1ccnnc1` [Ex. 234], the herbicidal activity result is recorded as “good (A good herbicidal activity is given at values of at least 70)” in the assay with Poa annua [2] and “very good (a very good herbicidal activity is given at values of at least 85)” with Apera spica-venti (2000 g/ha).

Turning to `N#CC(C#N)c1nc(C2CC2)ncc1-c1ccc(F)cc1Br` [Ex. 36], the herbicidal activity entry in the assay with Matricaria inodora, in the assay with Poa annua [4] and with Agrostis stolonifera was “very good (a very good herbicidal activity is given at values of at least 85)” each time.

In the case of `Clc1ccccc1-c1cnc(C2CC2)nc1C(Br)Br` [Ex. 35], the herbicidal activity result in the assay on Alopecurus myosuroides, in the assay with Amaranthus retroflexus [5] (2000 g/ha), with Echinocloa crus-galli [1] (2000 g/ha), in the assay on Apera spica-venti (2000 g/ha), in the assay with Echinocloa crus-galli [3] (2000 g/ha) and in the assay with Agrostis stolonifera was “very good (a very good herbicidal activity is given at values of at least 85)” in each case.
